Experimental data taken from patent US20230030847A1, “ANTI-MICROBIAL SULFONAMIDE PHARMACEUTICAL COMPOSITIONS FOR EXTERNAL USE” (priority 2021, published 2023).

Columns and labels:
Candida auris = assay: impregnated test swatch kill test; format: cell-based; settings: stack of four swatches impregnated with 2.5% BENZ; within 1 hour
Aspergillus brasiliensis = assay: impregnated test swatch kill test; format: cell-based; settings: swatches impregnated with 2.5% BENZ; within 1 hour
Experimental: (§1) Test swatches which had been impregnated with 2.5% BENZ were exposed to Staphylococcus aureus, Pseudomonas aeruginosa, and Aspergillus brasiliensis. A stack of two swatches was placed in a petri dish and then inoculated with 1.000 mL of an inoculum for one of the microorganisms. Following inoculation, the petri dishes were sealed and placed in a plastic bag/container, then incubated at optimal conditions for the given microorganism. Swatches were harvested at 0, 10 minutes, 30 minutes, 1 hour, and 6 hours after inoculation. At harvesting, the swatch was transferred to a neutralization media, then vortex mixed for 1-2 minutes. The neutralization suspension was […] and plated for 18-24 hours for bacteria and 24-72 hours for fungi at optimal incubation conditions.

Staphylococcus aureus = assay: impregnated test swatch kill test; format: cell-based; settings: swatches impregnated with 2.5% BENZ; within 30 minutes
Experimental: as §1

Pseudomonas aeruginosa = assay: impregnated test swatch kill test; format: cell-based; settings: swatches impregnated with 2.5% BENZ; within 10 minutes
Experimental: as §1

skin of rabbits = assay: primary skin irritation according to ISO 10993-10, Part 10; format: in vivo, rabbit; settings: abraded skin, gauze patches treated with 20% BENZ for 24 hours, observed 1, 24, 48 and 72 hours after patch removal
Experimental: Next, three rabbits were used for evaluation of primary skin irritation according to ISO 10993-10, Part 10. Two wet gauze patches (25 mm×25 mm) treated with 20% BENZ were applied to the skin of each rabbit in different locations. Each application site was abraded with four parallel epidermal abrasions prior to application of the treated gauze patch. The treated gauze was secured in place for 24 hours, then removed. The skin was then observed for erythema and edema at 1, 24, 48, and 72 hours after patch removal.

[1] = tested on: Rhinovirus 37, 151-1 strain, ATCC VR-1607; assay: impregnated filter medium virucidal test (TCID50 in MRC-5 cells); format: cell-based; settings: filter medium impregnated with 2.5% BENZ; contact time 30 minutes, 24.7-24.9° C., 39.9-40.5% relative humidity
Experimental: Next, a filter medium impregnated with 2.5% BENZ was exposed to a 0.200 mL volume of Rhinovirus 37, 151-1 strain, ATCC VR-1607 for a contact time of 30 minutes at 24.7-24.9° C. and 39.9-40.5% relative humidity. After 30 minutes, the filter medium was transferred to a neutralization medium and vortexed for at least 15 seconds. A 0.1 mL aliquot was removed and a series of 10-fold dilutions was performed in 0.9 mL aliquots of test medium. Each dilution was inoculated into MRC-5 cells. Viral titer was then calculated.

skin of guinea pigs = settings: guinea pig, in vivo
Experimental: Next, 10 guinea pigs were used to test for delayed dermal contact sensitization according to ISO 10993-10, Part 10. A wet gauze patch (25 mm×25 mm) treated with 20% BENZ was applied to the intact skin of each guinea pick for six hours (±30 minutes), three times a week, over a three-week period for a total of nine applications. After a two-week recovery period, the gauze patch was applied again. The skin was then observed for evidence of dermal reaction at 24 and 48 hours after patch removal. […] This test was performed a total of three times with different guinea pigs, and the same results were obtained each time.

[2] = tested on: Influenza A virus, A/PR/8/34 strain, ATCC VR-1469; format: cell-based; settings: filter medium impregnated with 2.5% BENZ; similar experiment (contact time 30 minutes)
rats = assay: single-dose oral gavage toxicity in rats; format: in vivo; settings: single gavage dose of liquid containing 20% BENZ, 5 g/kg body weight
From the text: Five rats (Rattus norvegicus) weighing 244 to 272 grams were gavaged with a single dose of liquid containing 20% N-chloro-4-carboxybenzenesulfonamide (BENZ) at a dosage of 5 g/kg body weight.

bovine corneas = assay: bovine corneal opacity and permeability (BCOP) test for ocular irritation; settings: 0.75 mL of 20% BENZ solution, 10 minutes exposure, three bovine corneas
Experimental: A bovine corneal opacity and permeability (BCOP) test was performed to determine the potential for ocular irritation.
Each dissected cornea was mounted in a holder that separated into anterior and posterior chambers. The two chambers were filled with a MEM solution, and an opacitometer was used to measure the opacity of the cornea. Next, the MEM solution was removed from the anterior chamber, and the epithelium of three bovine corneas were exposed to 0.75 mL of a 20% BENZ solution for 10 minutes in a manner that covered the entire cornea. The two chambers were then rinsed and refilled with fresh MEM solution. The corneas were then incubated at 32° C. for two hours, and the two chambers were again rinsed and refilled with fresh MEM solution. The opacity was measured again. The MEM solution was then removed from the anterior chamber and the anterior chamber was filled with 1.0 mL of 0.4% sodium fluorescein in Dulbecco's phosphate-buffered saline. After 90 minutes, the fluid in the posterior chamber was removed and the amount of dye that passed through the cornea was measured as the optical density at 490 nm by spectrophotometer. The In Vitro Irritancy Score (IVIS) was calculated to be −0.67, which is a perfect score.

[3] = stability study of BENZ solution; format: physicochemical
Experimental: A stability study was conducted. A BENZ solution was stored for 14 days at 54° C. At Day 0, the samples contained an average of 20.26% BENZ. At Day 14, the samples contained an average of 19.97% BENZ.

O=C(O)c1ccc(S(=O)(=O)NCl)cc1 [BENZ, N-chloro-4-carboxybenzenesulfonamide]
kill (Candida auris): 99.998% | kill (Aspergillus brasiliensis): 99.9% | kill (Staphylococcus aureus): 99.999% | kill (Pseudomonas aeruginosa): 99.999% | erythema and edema (skin of rabbits): no erythema or edema observed | reduction in viral titer [1]: > 99.997% | delayed dermal contact sensitization (skin of guinea pigs): No evidence was found of delayed dermal contact sensitization | reduction in viral titer [2]: > 100% | survival after seven days (rats): all five rats were still alive | In Vitro Irritancy Score (IVIS) (bovine corneas): −0.67 | average BENZ content of samples ([3]; Day 0, BENZ solution): 20.26% | average BENZ content of samples ([3]; Day 14, stored at 54° C.): 19.97%
